Tested on: HMVEC
Assay: human microvascular endothelial (HMVEC) migration assay
Format: cell-based
Conditions: Inhibition of HMVEC migration, activators 15 ng/mL bFGF/VEGF, 4 hours at 37 °C, compared to a positive control; for inhibition at 0.0001 µM / inhibition at 0.001 µM: Homo sapiens; for inhibition at 0.001 µM: 1 nM
Description: The human microvascular endothelial (HMVEC) migration assay was run according to the procedure of S. S. Tolsma, O. V. Volpert, D. J. Good, W. F. Frazier, P. J. Polverini and N. Bouck, J. Cell Biol. 122, 497-511 (1993).
The HMVEC migration assay was carried out using Human Microvascular Endothelial Cells-Dermal (single donor) and Human Microvascular Endothelial Cells, (neonatal). The BCE or HMVEC cells were starved overnight in DME containing 0.01% bovine serum albumin (BSA). Cells were then harvested with trypsin and resuspended in DME with 0.01 % BSA at a concentration of 1.5 X 10^6 cells per mL. Cells were added to the bottom of a 48 well modified Boyden chamber (Nucleopore Corporation, Cabin John, MD). The chamber was assembled and inverted, and cells were allowed to attach for 2 hours at 37 °C to polycarbonate chemotaxis membranes (5 µm pore size) that had been soaked in 0.01 % gelatin overnight and dried. The chamber was then reinverted, and test substances (total volume of 50 µL), including activators, 15 ng/mL bFGF/VEGF, were added to the wells of the upper chamber. The apparatus was incubated for 4 hours at 37 °C. Membranes were recovered, fixed and stained (Diff Quick, Fisher Scientific) and the number of cells that had migrated to the upper chamber per 3 high power fields counted. Background migration to DME + […] was subtracted and the data reported as the number of cells migrated per 10 high power fields (400X) or, when results from multiple experiments were combined, as the percent inhibition of migration compared to a positive control.

| Compound | inhibition at 0.0001 µM (0.1 nM) | other results |
| --- | --- | --- |
| Cc1ccc(C(=O)N2CC[C@@H](NC(=O)NCc3ccc(F)cc3F)C2)cn1 [Example 30, N-(2,4-difluorobenzyl)-N'-{(3R)-1-[(6-methyl-3-pyridinyl)carbonyl]-3-pyrrolidinyl}urea] | 64% | – |
| Cc1ccc(C(=O)N2CC[C@@H](NC(=O)NCCC(c3ccccc3)c3ccccc3)C2)cn1 [Example 31, N-(3,3-diphenylpropyl)-N'-{(3R)-1-[(6-methyl-3-pyridinyl)carbonyl]-3-pyrrolidinyl}urea] | 79% | – |
| Cc1ccc(C(=O)N2CC[C@@H](NC(=O)N[C@@H](CO)c3ccccc3)C2)cn1 [Example 32, N-[(1R)-2-hydroxy-1-phenylethyl]-N'-{(3R)-1-[(6-methyl-3-pyridinyl)carbonyl]-3-pyrrolidinyl} urea] | 85% | – |
| Cc1ccc(C(=O)N2CC[C@@H](NC(=O)N[C@@H](C)c3ccccc3)C2)cn1 [Example 33, N-((3R)-1-[(6-methylpyridin-3-yl)carbonyl]pyrrolidin-3-yl)-N'-[(1S)-1-phenylethyl]urea] | 85% | – |
| CCCCN(CCCC)C(=O)N[C@@H]1CCN(C(=O)c2ccc(C)nc2Cl)C1 [Example 34, N,N-dibutyl-N'-{(3R)-1-[(2-chloro-6-methylpyridin-3-yl)carbonyl]pyrrolidin-3-yl}urea] | – | inhibition at 0.001 µM: 50% |
| COCCN(C(=O)N[C@@H]1CCN(C(=O)c2ccc(C)nc2Cl)C1)C(C)C [Example 35, N'-{(3R)-1-[(2-chloro-6-methylpyridin-3-yl)carbonyl]pyrrolidin-3-yl}-N-isopropyl-N-(2-methoxyethyl)urea] | 70% | – |
| Cc1ccc(C(=O)N2CC[C@@H](NC(=O)N[C@@H](CO)c3ccccc3)C2)c(Cl)n1 [Example 37, N-{(3R)-1-[(2-chloro-6-methylpyridin-3-yl)carbonyl]pynolidin-3-yl}-N'-[(1R)-2-hydroxy-1-phenylethyl]urea] | – | % Inhibition @ 0.1 nM (0.1 nM): 73% |
| CCOCCCNC(=O)N[C@@H]1CCN(C(=O)c2ccc(C)nc2Cl)C1 [Example 38, N-{(3R)-1-[(2-chloro-6-methylpyridin-3-yl)carbonyl]pyrrolidin-3-yl}-N'-(3-ethoxypropyl)urea] | 99% | – |
| Cc1ccc(C(=O)N2CC[C@@H](NC(=O)NCCCOC(C)C)C2)c(Cl)n1 [Example 39, N-{(3R)-1-[(2-chloro-6-methylpyridin-3-yl)carbonyl]pyrrolidin-3-yl}-N'-(3-isopropoxypropyl)urea] | – | inhibition at 0.001 µM: 72% |
| Cc1ccc(C(=O)N2CC[C@@H](NC(=O)NCCCOCC(C)C)C2)c(Cl)n1 [Example 40, N-{(3R)-1-[(2-chloro-6-methylpyridin-3-yl)carbonyl]pyrrolidin-3-yl}-N'-(3-isobutoxypropyl)urea] | 72% | – |
| CSCCCNC(=O)N[C@@H]1CCN(C(=O)c2ccc(C)nc2Cl)C1 [Example 41, N-{(3R)-1-[(2-chloro-6-methylpyridin-3-yl)carbonyl]pyrrolidin-3-yl}-N'-[3-(methylthio)propyl]urea] | 87% | – |
| Cc1ccc(C(=O)N2CC[C@@H](NC(=O)N(Cc3ccccc3)Cc3ccccc3)C2)c(Cl)n1 [Example 43, N,N-dibenzyl-N'-{(3R)-1-[(2-chloro-6-methylpyridin-3-yl)carbonyl]pyrrolidin-3-yl}urea] | 73% | – |
| Cc1ccc(C(=O)N2CC[C@@H](NC(=O)N(C)CCc3ccccc3)C2)c(Cl)n1 [Example 44, N'-{(3R)-1-[(2-chloro-6-methylpyridin-3-yl)carbonyl]pyrrolidin-3-yl}-N-methyl-N-(2-phenylethyl)urea] | 80% | – |
| COc1ccc(CCN(C)C(=O)N[C@@H]2CCN(C(=O)c3ccc(C)nc3Cl)C2)cc1OC [Example 45, N'-{(3R)-1-[(2-chloro-6-methylpyridin-3-yl)carbonyl]pyrrolidin-3-yl}-N-[2-(3,4-dimethoxyphenyl)ethyl]-N-methylurea] | 82% | – |
| Cc1ccc(C(=O)N2CC[C@@H](NC(=O)N3CCC(Cc4ccccc4)CC3)C2)c(Cl)n1 [Example 46, 4-benzyl-N-{(3R)-1-[(2-chloro-6-methylpyridin-3-yl)carbonyl]pyrrolidin-3-yl}piperidine-1-carboxamide] | 99% | – |
| Cc1ccc(C(=O)N2CC[C@@H](NC(=O)N3CCC(n4c(=O)[nH]c5ccccc54)CC3)C2)c(Cl)n1 [Example 47, N-{(3R)-1-[(2-chloro-6-methylpyridin-3-yl)carbonyl]pyrrolidin-3-yl}-4-(2-oxo-2,3-dihydro-1H-benzimidazol-1-yl)piperidine-1-carboxanude] | – | inhibition at 0.001 µM: 80% |

| Compound | inhibition at 0.0001 µM (0.1 nM) | other results |
| --- | --- | --- |
| Cc1ccc(C(=O)N2CC[C@@H](NC(=O)N3CCN(c4ccccc4)CC3)C2)c(Cl)n1 [Example 48, N-{(3R)-1-[(2-chloro-6-methylpyridin-3-yl)carbonyl]pyrrolidin-3-yl}-4-phenylpiperazine-1-carboxamide] | – | inhibition at 0.001 µM: 78% |
| CCN(CC)CCN(C)C(=O)N[C@@H]1CCN(C(=O)c2ccc(C)nc2)C1 [Example 49, N-[2-(diethylamino)ethyl]-N-methyl-N'-{(3R)-1-[(6-methylpyridin-3-yl)carbonyl]pyrrolidin-3-yl}urea] | 65% | – |
| CCN(Cc1ccccc1)C(=O)N[C@@H]1CCN(C(=O)c2ccc(C)nc2)C1 [Example 50, N-benzyl-N-ethyl-N'-{(3R)-1-[(6-methylpyridin-3-yl)carbonyl]pyrrolidin-3-yl} urea] | 76% | – |
| Cc1ccc(C(=O)N2CC[C@@H](NC(=O)N(Cc3ccccc3)C(C)C)C2)cn1 [Example 51, N-benzyl-N-isopropyl-N'-{(3R)-1-[(6-methylpyridin-3-yl)carbonyl]pyrrolidin-3-yl}urea] | – | inhibition at 0.001 µM: 60% |
| CCCCN(Cc1ccccc1)C(=O)N[C@@H]1CCN(C(=O)c2ccc(C)nc2)C1 [Example 52, N-benzyl-N-butyl-N'-{(3R)-1-[(6-methylpyridin-3-yl)carbonyl]pyrrolidin-3-yl}urea] | – | inhibition at 0.001 µM: 80% |
| Cc1ccc(C(=O)N2CC[C@@H](NC(=O)N(Cc3ccccc3)Cc3ccccc3)C2)cn1 [Example 53, N,N-dibenzyl-N'-{(3R)-1-[(6-methylpyridin-3-yl)carbonyl]pyrrolidin-3-yl} urea] | 78% | – |
| Cc1ccc(C(=O)N2CC[C@@H](NC(=O)N(CCc3ccccc3)Cc3ccccc3)C2)cn1 [Example 54, N-benzyl-N'-{(3R)-1-[(6-methylpyridin-3-yl)carbonyl]pyrrolidin-3-yl}-N-(2-phenylethyl)urea] | – | inhibition at 0.001 µM: 78% |
| CCN(CC)C(=O)C1CCCN(C(=O)N[C@@H]2CCN(C(=O)c3ccc(C)nc3)C2)C1 (stereo partly drawn) [Example 55, N^3,N^3-diethyl-N^1-{(3R)-1-[(6-methylpyridin-3-yl)carbonyl]pyrrolidin-3-yl}piperidine-1,3-dicarboxamide] | – | inhibition at 0.001 µM: 93% |
| Cc1ccc(C(=O)N2CC[C@@H](NC(=O)N3CCC(n4c(=O)[nH]c5ccccc54)CC3)C2)cn1 [Example 56, N-{(3R)-1-[(6-methylpyridin-3-yl)carbonyl]pyrrolidin-3-yl}-4-(2-oxo-2,3-dihydro-1H-benzimidazol-1-yl)piperidine-1-carboxamide] | 86% | – |
| CCN1CCN(C(=O)N[C@@H]2CCN(C(=O)c3ccc(C)nc3)C2)CC1 [Example 57, 4-ethyl-N-{(3R)-1-[(6-methylpyridin-3-yl)carbonyl]pyrrolidin-3-yl}piperazine-1-carboxamide] | 86% | – |
| Cc1ccc(C(=O)N2CC[C@@H](NC(=O)N3CCN(Cc4ccccc4)CC3)C2)cn1 [Example 58, 4-benzyl-N-{(3R)-1-[(6-methylpyridin-3-yl)carbonyl]pyrrolidin-3-yl}piperazine-1-carboxamide] | 71% | – |
| CCCN(C)C(=O)N[C@@H]1CCN(C(=O)c2ccc(C)nc2)C1 [Example 59, N-methyl-N'-{(3R)-1-[(6-methylpyridin-3-yl)carbonyl]pyrrolidin-3-yl}-N-propylurea] | 93% | – |
| Cc1ccc(C(=O)N2CC[C@@H](NC(=O)N(C)CC(C)C)C2)cn1 [Example 60, N-isobutyl-N-methyl-N'-{(3R)-1-[(6-methylpyridin-3-yl)carbonyl]pyrrolidin-3-yl}urea] | 67% | – |
| Cc1ccc(C(=O)N2CC[C@@H](NC(=O)N(C)CCC(C)C)C2)cn1 [Example 61, N-methyl-N-(3-methylbutyl)-N'-{(3R)-1-[(6-methylpyridin-3-yl)carbonyl]pyrrolidin-3-yl}urea] | 66% | – |
| C#CCN(C)C(=O)N[C@@H]1CCN(C(=O)c2ccc(C)nc2)C1 [Example 62, N-methyl-N'-{(3R)-1-[(6-methylpyridin-3-yl)carbonyl]pyrrolidin-3-yl}-N-prop-2-ynylurea] | 54% | – |
| CCCN(CC)C(=O)N[C@@H]1CCN(C(=O)c2ccc(C)nc2)C1 [Example 63, N-ethyl-N'-{(3R)-1-[(6-methylpyridin-3-yl)carbonyl]pyrrolidin-3-yl}-N-propylurea] | 72% | – |
